Laboratory results: patent publication US10239873B2, “7-azaindole or 4,7-diazaindole derivatives as IKKϵ epsilon and TBK1 inhibitor and pharmaceutical composition comprising same” (GREEN CROSS CORPORATION, priority 2015, dated 2019)
Counter-ions that a name gives are not always drawn.

Experiments:
[1] = biological target: T1, TBK1 (Homo sapiens, UniProt Q9UHD2); test: ADP-Glo Kinase Assay, inhibition activity on TBK1; assay type: biochemical
T1 construct: purchased Promega (Invitrogen is also named in the same bracket) V4158; PR8031B; V3991 (not assigned to the two kinases)
T1 sequence (Q9UHD2 1-729): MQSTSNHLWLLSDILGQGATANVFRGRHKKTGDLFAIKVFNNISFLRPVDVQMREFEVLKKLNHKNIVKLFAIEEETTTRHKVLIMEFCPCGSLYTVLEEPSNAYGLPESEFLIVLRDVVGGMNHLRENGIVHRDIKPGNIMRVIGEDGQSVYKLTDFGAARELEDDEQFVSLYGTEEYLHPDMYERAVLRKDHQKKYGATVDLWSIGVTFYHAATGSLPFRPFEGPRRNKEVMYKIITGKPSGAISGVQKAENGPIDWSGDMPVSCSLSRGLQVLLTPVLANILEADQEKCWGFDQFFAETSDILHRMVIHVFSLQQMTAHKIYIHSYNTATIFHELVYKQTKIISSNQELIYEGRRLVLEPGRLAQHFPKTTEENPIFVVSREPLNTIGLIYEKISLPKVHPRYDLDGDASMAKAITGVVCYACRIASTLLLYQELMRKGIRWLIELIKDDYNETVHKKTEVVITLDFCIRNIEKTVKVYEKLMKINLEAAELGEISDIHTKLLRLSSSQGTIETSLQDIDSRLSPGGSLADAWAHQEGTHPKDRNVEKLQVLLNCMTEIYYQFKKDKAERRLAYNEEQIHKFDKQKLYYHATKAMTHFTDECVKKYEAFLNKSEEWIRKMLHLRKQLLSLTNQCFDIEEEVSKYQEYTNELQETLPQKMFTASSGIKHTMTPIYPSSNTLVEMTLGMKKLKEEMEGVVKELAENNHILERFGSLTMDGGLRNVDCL
How it was run: (§1)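 Kinase activity measured with the ADP-Glo luminescent ADP-detection kit per manufacturer's protocol, using IKKε or TBK1 kinase enzyme systems. Reaction buffer: 40 mM Tris (pH 7.5), 20 mM MgCl2, 0.1 mg/mL BSA; luminescence read on a luminometer.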

[2] = biological target: T2, IKKε (Homo sapiens, UniProt Q14164); test: ADP-Glo Kinase Assay, inhibition activity on IKKε; assay type: biochemical
T2 construct: purchased Promega and/or Invitrogen V4158; PR8031B; V3991 (not assigned to the two kinases)
T2 sequence (Q14164 1-716): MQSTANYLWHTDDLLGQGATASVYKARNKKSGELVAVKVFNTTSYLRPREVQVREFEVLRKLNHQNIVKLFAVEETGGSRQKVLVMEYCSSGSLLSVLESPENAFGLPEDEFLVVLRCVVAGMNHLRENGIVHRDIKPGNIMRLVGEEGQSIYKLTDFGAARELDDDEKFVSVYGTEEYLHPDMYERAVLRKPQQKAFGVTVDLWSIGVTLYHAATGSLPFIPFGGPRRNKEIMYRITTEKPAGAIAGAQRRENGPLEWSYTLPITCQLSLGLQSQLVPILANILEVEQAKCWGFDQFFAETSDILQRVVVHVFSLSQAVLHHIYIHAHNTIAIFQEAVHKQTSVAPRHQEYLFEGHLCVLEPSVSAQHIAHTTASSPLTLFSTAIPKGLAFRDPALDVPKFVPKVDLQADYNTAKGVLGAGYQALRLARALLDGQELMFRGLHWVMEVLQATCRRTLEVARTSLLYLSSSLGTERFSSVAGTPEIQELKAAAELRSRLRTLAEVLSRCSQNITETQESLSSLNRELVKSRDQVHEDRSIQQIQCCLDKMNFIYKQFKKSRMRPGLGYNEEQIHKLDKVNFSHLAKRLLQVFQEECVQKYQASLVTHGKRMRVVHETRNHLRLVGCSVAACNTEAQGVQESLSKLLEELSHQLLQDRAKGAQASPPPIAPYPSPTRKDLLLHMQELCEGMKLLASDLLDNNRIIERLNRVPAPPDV
How it was run: as §1

Row | SMILES | IC50 [1] [nM] | IC50 [2] [nM]
1 | CC(C)NC(=O)N1C2C=C(c3c[nH]c4ncc(-c5ccc(CN6CCOCC6)s5)cc34)CC1CCC2 (stereo not shown) [Example 118, N-isopropyl-3-(5-(5-(morpholinomethyl)thiophen-2-yl)-1H-pyrrolo[2,3-b]pyridin-3-yl)-9-azabicyclo[3.3.1]non-3-ene-9-carboxamide] | 340 | 610
2 | CC1C=C(c2c[nH]c3ncc(-c4ccc(CN5CCOCC5)s4)cc23)CCN1C(=O)NC1CCCC1 (stereo not shown) [Example 106, N-cyclopentyl-2-methyl-4-(5-(5-(morpholinomethyl)thiophen-2-yl)-1H-pyrrolo[2,3-b]pyridin-3-yl)-5,6-dihydropyridine-1(2H)-carboxamide] | 3.1 | 4.7
3 | CCCCC(=O)N1CC=C(c2c[nH]c3ncc(-c4ccc(CN5CCOCC5)s4)cc23)CC1 [Example 9, 1-(4-(5-(5-(Morpholinomethyl)thiophen-2-yl)-1H-pyrrolo[2,3-b]pyridin-3-yl)-3,6-dihydropyridin-1(2H)-yl)pentan-1-one] | 330 | 510
4 | CC(C)NC(=O)N1CC=C(c2c[nH]c3ncc(-c4ccc(CN5CCN(C6CC6)CC5)cc4)cc23)CC1 [Example 23, 4-(5-(4-((4-Cyclopropylpiperazin-1-yl)methyl)phenyl)-1H-pyrrolo[2,3-b]pyridin-3-yl)-N-isopropyl-3,6-dihydropyridine-1(2H)-carboxamide] | 5.7 | 6.6
5 | CC1CN(C(=O)NC2CCCC2)CC=C1c1c[nH]c2ncc(-c3cccc(S(C)(=O)=O)c3)cc12 (stereo not shown) [Example 122, N-cyclopentyl-5-methyl-4-(5-(3-(methylsulfonyl)phenyl)-1H-pyrrolo[2,3-b]pyridin-3-yl)-5,6-dihydropyridine-1(2H)-carboxamide] | 36 | 97
6 | CCN1CCN(Cc2ccc(-c3cnc4[nH]cc(C5=CCN(C(=O)NC(C)C)CC5)c4c3)s2)CC1 [Example 26, 4-(5-(5-((4-Ethylpiperazin-1-yl)methyl)thiophen-2-yl)-1H-pyrrolo[2,3-b]pyridin-3-yl)-N-isopropyl-3,6-dihydropyridine-1(2H)-carboxamide] | 7.7 | 25
7 | CC(C)NC(=O)N1CCC(c2c[nH]c3ncc(-c4ccc(CN5CCOCC5)s4)cc23)=CC1C (stereo not shown) [Example 87, N-isopropyl-2-methyl-4-(5-(5-(morpholinomethyl)thiophen-2-yl)-1H-pyrrolo[2,3-b]pyridin-3-yl)-5,6-dihydropyridine-1(2H)-carboxamide] | 1 | 1.5
8 | COc1ccc(-c2cnc3[nH]cc(C4=CCN(C(=O)NC(C)C)C4)c3c2)cc1OC [Example 237, 3-(5-(3,4-dimethoxyphenyl)-1H-pyrrolo[2,3-b]pyridin-3-yl)-N-isopropyl-2,5-dihydro-1H-pyrrol-1-carboxamide] | > 10000 | > 10000
9 | O=C(NC1CC1)N1CC=C(c2c[nH]c3ncc(-c4ccc(CN5CCNCC5)s4)cc23)CC1 [Example 45, N-cyclopropyl-4-(5-(5-(piperazin-1-ylmethyl)thiophen-2-yl)-1H-pyrrolo[2,3-b]pyridin-3-yl)-5,6-dihydropyridine-1(2H)-carboxamide dihydrochloride] | 3.3 | 24
10 | CC1C=C(c2c[nH]c3ncc(-c4ccc(CN5CCN(C(=O)OC(C)(C)C)CC5)s4)cc23)CCN1C(=O)NC1CC1 (stereo not shown) [Example 93, tert-Butyl 4-((5-(3-(1-(cyclopropylcarbamoyl)-6-methyl-1,2,3,6-tetrahydropyridin-4-yl)-1H-pyrrolo[2,3-b]pyridin-5-yl)thiophen-2-yl)methyl)piperazine-1-carboxylate] | 18 | 48
11 | CC(C)NC(=O)N1CCC(c2c[nH]c3ncc(-c4ccc(CN5CCN(C)CC5)s4)cc23)=CC1C (stereo not shown) [Example 88, N-isopropyl-2-methyl-4-(5-(5-((4-methylpiperazin-1-yl)methyl)thiophen-2-yl)-1H-pyrrolo[2,3-b]pyridin-3-yl)-5,6-dihydropyridine-1(2H)-carboxamide] | 0.8 | 3.2
